In brackets after ≈: the same amount, converted by molar mass.
Tests used:
Assay type in all cases: functional
Escherichia coli [1] = assay: Antibacterial activity against Escherichia coli (OC 2605)
Enterococcus faecalis = assay: Antibacterial activity against Enterococcus faecalis (ATCC 29212)
Staphylococcus aureus [2] = assay: Antibacterial activity against methicillin - resistant Staphylococcus aureus (MRSA OC2878)
Escherichia coli [3] = assay: Antibacterial activity against Escherichia coli (OC 2530) (HS)
Enterococcus faecium [4] = assay: Antibacterial activity against vancomycin - resistant Enterococcus faecium (OC 3312 VRE)
Staphylococcus aureus [5] = assay: Antibacterial activity against methicillin susceptible Staphylococcus aureus (OC 4172) in broth (without serum)
Staphylococcus aureus [6] = assay: Antibacterial activity against methicillin susceptible Staphylococcus aureus (OC 4172) in presence of 50% mouse serum
Staphylococcus aureus [7] = assay: Antibacterial activity towards methicillin - resistant Staphylococcus aureus (MRSA OC2878)
Enterococcus faecium [8] = assay: Minimum inhibitory concentration against vancomycin - resistant Enterococcus faecium (OC 3312 VRE)

| Compound | MIC (Escherichia coli [1]) [µg/mL] | MIC (Enterococcus faecalis) [µg/mL] | MIC (Staphylococcus aureus [2]) [µg/mL] | MIC (Escherichia coli [3]) [µg/mL] | MIC (Enterococcus faecium [4]) [µg/mL] | MIC (Staphylococcus aureus [5]) [µg/mL] | MIC (Staphylococcus aureus [6]) [µg/mL] | MIC (Staphylococcus aureus [7]) [µg/mL] | MIC (Enterococcus faecium [8]) [µg/mL] |
| --- | --- | --- | --- | --- | --- | --- | --- | --- | --- |
| CC(=O)NC[C@H]1CN(c2ccc(OC3CCN(C(=O)CO)C3)c(F)c2)C(=O)O1 (stereo partly drawn) | 128 (≈ 324 µM) | 16 (≈ 40.5 µM) | 8 (≈ 20.2 µM) | 128 (≈ 324 µM) | 16 (≈ 40.5 µM) | 4 (≈ 10.1 µM) | 4 |  |  |
| CC(=O)NC[C@H]1CN(c2ccc(OC3CN(C(=O)COCc4ccccc4)C3)c(F)c2)C(=O)O1 | > 128 | 16 (≈ 33.9 µM) | 8 (≈ 17 µM) | 64 (≈ 136 µM) | 16 (≈ 33.9 µM) | 8 (≈ 17 µM) | 16 |  |  |
| CC(=O)NC[C@H]1CN(c2ccc(OC3CN(C(=O)CO)C3)c(F)c2)C(=O)O1 | > 128 | 16 (≈ 42 µM) | 8 (≈ 21 µM) | > 128 | 16 (≈ 42 µM) | 8 (≈ 21 µM) | 8 |  |  |
| CC(=O)NC[C@H]1CN(c2ccc(OC3CCN(C(=O)CO)CC3)cc2)C(=O)O1 | > 128 | 32 (≈ 81.8 µM) | 16 (≈ 40.9 µM) | > 128 | 32 (≈ 81.8 µM) | 16 (≈ 40.9 µM) | 32 |  |  |
| CC(=O)NC[C@H]1CN(c2ccc(OC3CCN(C(=O)COCc4ccccc4)CC3)c(F)c2)C(=O)O1 | > 128 | 4 (≈ 8.01 µM) |  | > 32 | 4 (≈ 8.01 µM) | 4 (≈ 8.01 µM) | 16 | 2 (≈ 4 µM) |  |
| CC(=O)NC[C@H]1CN(c2ccc(OC3CCCN(C(=O)COCc4ccccc4)C3)c(F)c2)C(=O)O1 (stereo partly drawn) | > 128 | 64 (≈ 128 µM) | 32 (≈ 64.1 µM) | > 64 | 64 (≈ 128 µM) | 32 (≈ 64.1 µM) | 32 |  |  |
| CC(=O)NC[C@H]1CN(c2ccc(OC3CCN(C(=O)COCc4ccccc4)CC3)cc2)C(=O)O1 | 128 (≈ 266 µM) | 16 (≈ 33.2 µM) | 8 (≈ 16.6 µM) | 128 (≈ 266 µM) |  | 16 (≈ 33.2 µM) | 64 |  | 16 (≈ 33.2 µM) |
| CC(=O)NC[C@H]1CN(c2ccc(OC3CCN(C(=O)CO)CC3)c(F)c2)C(=O)O1 | > 128 | 8 (≈ 19.5 µM) | 4 (≈ 9.77 µM) | 128 (≈ 313 µM) | 8 (≈ 19.5 µM) | 4 (≈ 9.77 µM) | 4 |  |  |
| CC(=O)NC[C@H]1CN(c2ccc(OC3CCN(C(=O)COCc4ccccc4)C3)c(F)c2)C(=O)O1 (stereo partly drawn) | > 128 | 16 (≈ 33 µM) | 16 (≈ 33 µM) | > 128 | 16 (≈ 33 µM) | 16 (≈ 33 µM) | 16 |  |  |
| CC(=O)NC[C@H]1CN(c2ccc(OC3CCCN(C(=O)CO)C3)c(F)c2)C(=O)O1 (stereo partly drawn) | > 128 | 16 (≈ 39.1 µM) | 8 (≈ 19.5 µM) | 128 (≈ 313 µM) | 16 (≈ 39.1 µM) | 8 (≈ 19.5 µM) | 8 |  |  |
| CC(=O)NC[C@H]1CN(c2ccc(N3CCOCC3)c(F)c2)C(=O)O1 [LINEZOLID] | 32 (≈ 94.9 µM) |  |  | 8 (≈ 23.7 µM) | 2 (≈ 5.93 µM) |  |  |  |  |

Reference: ChEMBL document CHEMBL1134136, “Novel piperidinyloxy oxazolidinone antimicrobial agents” (2001)
